Activity calls are given as the source filed them. The rule behind the calls is not given here.
Key:
[1] = molecular target: T1, Neuropeptide Y receptor type 1 (Homo sapiens) (UniProt P25929); assay: Tested for inhibition of NPY-induced increase in [Ca2+] at 10 uM concentration in human erythroleukemia cells; assay type: functional
T1 sequence (whole entry): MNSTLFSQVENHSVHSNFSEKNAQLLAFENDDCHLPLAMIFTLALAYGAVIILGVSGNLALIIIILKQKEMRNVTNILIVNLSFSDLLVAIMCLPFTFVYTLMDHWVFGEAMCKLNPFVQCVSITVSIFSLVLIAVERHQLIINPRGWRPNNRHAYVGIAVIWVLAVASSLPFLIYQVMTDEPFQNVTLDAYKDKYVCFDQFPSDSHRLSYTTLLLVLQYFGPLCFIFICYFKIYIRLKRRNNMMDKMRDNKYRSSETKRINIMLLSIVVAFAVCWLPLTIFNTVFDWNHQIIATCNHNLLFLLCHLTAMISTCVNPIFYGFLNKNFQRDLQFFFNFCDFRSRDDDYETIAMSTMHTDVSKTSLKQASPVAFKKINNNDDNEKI

[2] = molecular target: Histamine H1 receptor (Cavia porcellus) (UniProt P31389); assay: Antagonistic activity (H1 antagonism) evaluated by the inhibition of histamine-stimulated contraction in guinea pig ileum at a concentration of 1E-7 - 1E-4 M; assay type: functional, tissue-based
[3] = molecular target: Histamine H2 receptor (Cavia porcellus) (UniProt P47747); assay: Intrinsic activity was evaluated against H2 receptor in guinea pig atrium; assay type: tissue-based; settings: Cardiac atrium
[4] = molecular target: Histamine H2 receptor (Cavia porcellus) (UniProt P47747); assay: Histamine H2 receptor agonistic activity was evaluated by the inhibition of histamine-stimulated contraction in guinea pig atrium; assay type: functional, tissue-based; settings: Cardiac atrium
[5] = molecular target: T1, Neuropeptide Y receptor type 1 (Homo sapiens); assay: Tested for inhibition of NPY-induced increase in [Ca2+] at 100 uM concentration in human erythroleukemia cells; assay type: functional
[6] = molecular target: Histamine H2 receptor (Cavia porcellus) (UniProt P47747); assay: Intrinsic activity was evaluated against H2 receptor in guinea pig atrium at a concentration of 1E-7 - 1E-4 M; assay type: tissue-based; settings: Cardiac atrium
[7] = molecular target: Histamine H2 receptor (Cavia porcellus) (UniProt P47747); assay: Histamine H2 receptor […] activity (positive chronotropism) was evaluated by the inhibition of histamine-stimulated contraction in guinea pig atrium at a concentration of 1E-7 - 1E-4 M; assay type: functional, tissue-based; settings: Cardiac atrium
[8] = molecular target: T1, Neuropeptide Y receptor type 1 (Homo sapiens); assay: Tested for inhibition of NPY-induced increase in [Ca2+] at 10 uM concentration in human erythroleukemia cells; Not determined; assay type: functional
[9] = molecular target: T1, Neuropeptide Y receptor type 1 (Homo sapiens); assay: (§1) pA2 for inhibition of NPY-stimulated [Ca2+] mobilization in HEL cells; assay type: cell-based
[10] = molecular target: T1, Neuropeptide Y receptor type 1 (Homo sapiens); assay: Tested for inhibition of NPY-induced increase in [Ca2+] at 10 uM concentration in human erythroleukemia cells; inactive; assay type: functional
[11] = molecular target: Histamine H2 receptor (Cavia porcellus) (UniProt P47747); assay: Histamine H2 receptor agonistic activity (positive chronotropism) was evaluated by the inhibition of histamine-stimulated contraction in guinea pig atrium; Inactive; assay type: functional, tissue-based; settings: Cardiac atrium
[12] = molecular target: Histamine H2 receptor (Cavia porcellus) (UniProt P47747); assay: Intrinsic activity was evaluated in guinea pig atrium at a concentration of 1E-7 - 1E-4 M; assay type: tissue-based; settings: Cardiac atrium
[13] = molecular target: T1, Neuropeptide Y receptor type 1 (Homo sapiens); assay: Tested for inhibition of NPY-induced increase in [Ca2+] at 10 uM concentration in human erythroleukemia cells; Not determined; inactive; assay type: functional
[14] = molecular target: T2, Neuropeptide Y receptor type 1 (Homo sapiens, UniProt P25929); assay: as §1; assay type: functional, cell-based; settings: read-out: pA2 (converted)
T2 sequence (P25929 whole entry): T1 sequence (whole entry)

[15] = molecular target: T1, Neuropeptide Y receptor type 1 (Homo sapiens); assay: Tested for inhibition of NPY-induced increase in [Ca2+] at 100 uM concentration in human erythroleukemia cells; inactive; assay type: functional

Histamine H1 receptor (Cavia porcellus), sequence (P31389 whole entry): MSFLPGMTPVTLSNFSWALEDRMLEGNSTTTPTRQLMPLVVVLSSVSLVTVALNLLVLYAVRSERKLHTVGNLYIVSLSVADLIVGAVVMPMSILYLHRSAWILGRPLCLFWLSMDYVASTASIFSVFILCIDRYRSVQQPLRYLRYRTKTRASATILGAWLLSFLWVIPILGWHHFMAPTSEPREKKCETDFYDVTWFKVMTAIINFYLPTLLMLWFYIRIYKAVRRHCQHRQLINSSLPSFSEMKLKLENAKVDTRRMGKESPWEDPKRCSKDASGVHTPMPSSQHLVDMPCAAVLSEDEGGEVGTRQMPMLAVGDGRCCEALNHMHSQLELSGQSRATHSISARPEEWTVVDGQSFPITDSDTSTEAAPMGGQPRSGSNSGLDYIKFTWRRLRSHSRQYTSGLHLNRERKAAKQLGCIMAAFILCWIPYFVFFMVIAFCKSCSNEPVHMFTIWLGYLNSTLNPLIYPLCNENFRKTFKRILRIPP
Histamine H2 receptor (Cavia porcellus), sequence (P47747 whole entry): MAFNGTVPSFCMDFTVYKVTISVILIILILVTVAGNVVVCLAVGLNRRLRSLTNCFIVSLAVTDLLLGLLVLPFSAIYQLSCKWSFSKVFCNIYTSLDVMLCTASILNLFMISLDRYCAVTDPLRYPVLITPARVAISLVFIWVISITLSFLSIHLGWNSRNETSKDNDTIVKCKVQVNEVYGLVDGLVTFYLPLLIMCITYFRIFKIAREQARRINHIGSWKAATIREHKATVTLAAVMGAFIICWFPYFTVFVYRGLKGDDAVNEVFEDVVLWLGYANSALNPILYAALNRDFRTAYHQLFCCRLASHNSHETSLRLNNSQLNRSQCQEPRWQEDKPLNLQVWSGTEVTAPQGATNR

| Structure (SMILES) | inhibition [1] | pKB [2] | Intrinsic activity [3] | pD2 [4] | inhibition [5] | other results |
| --- | --- | --- | --- | --- | --- | --- |
| N=C(CCCCc1c[nH]cn1)NCCC(c1ccc(F)cc1)c1ccccn1 (stereo unspecified) | 5% | 6.56 | 0.6 | 6.47 | 27% |  |
| N=C(NCCCc1c[nH]cn1)NCCC(c1ccc(F)cc1)c1ccccn1 (stereo unspecified) | 18% | 7.65 | 1 | 8.01 | 75% |  |
| Brc1ccc(C(CC/N=C(/NCCCc2c[nH]cn2)NC2CCCCC2)c2ccccn2)cc1 (stereo unspecified) | 36% | 5.42 | 0.65 | 4.69 | 82% |  |
| Clc1ccc(C(CCC/N=C(/NCCCc2c[nH]cn2)Nc2ccccc2)c2ccccn2)cc1Cl (stereo unspecified) |  | 5.5 |  |  | 78% | Intrinsic activity [6]: 1; pKB [7]: 4.97; inhibition [8]: 48% |
| N=C(NCCCc1c[nH]cn1)NCCC(c1ccc(Cl)c(Cl)c1)c1ccccn1 (stereo unspecified) | 81% | 7.1 | 1 | 8.19 | 93% | pKB [9]: 6.25 |
| N#CN/C(=N\CCC(c1ccc(F)cc1)c1ccccn1)NCCCc1c[nH]cn1 (stereo unspecified) |  |  |  |  | 13% | inhibition [10]: inactive; pD2 [11]: inactive |
| CN/C(=N\CCC(c1ccc(F)cc1)c1ccccn1)NCCCc1c[nH]cn1 (stereo unspecified) |  | 5.08 | 1 | 5.65 | 13% |  |
| Brc1ccc(C(CC/N=C(/NCCCc2c[nH]cn2)Nc2ccccc2)c2ccccn2)cc1 (stereo unspecified) | 24% | 5.81 |  |  | 76% | pKB [7]: 5.14; Intrinsic activity [12]: 1 |
| Fc1ccc(C(CCCNCCCc2c[nH]cn2)c2ccccn2)cc1 (stereo unspecified) |  | 6.43 | 0.5 | 5.17 | 24% |  |
| N=C(NCCCc1c[nH]cn1)NCCC(c1ccccc1)c1ccccn1 (stereo unspecified) | 2% | 7.01 | 1 | 7.39 | 69% |  |
| N=C(NCCCc1c[nH]cn1)NCCC(c1ccc(Br)cc1)c1ccccn1 (stereo unspecified) | 27% | 6.92 | 1 | 7.48 | 85% |  |
| CN/C(=N\CCC(c1ccc(Br)cc1)c1ccccn1)NCCCc1c[nH]cn1 (stereo unspecified) |  | 5.71 | 0.9 | 5.75 | 38% | inhibition [10]: inactive |
| c1ccc(C(CCC/N=C(/NCCCc2c[nH]cn2)NC2CCCCC2)c2ccccn2)cc1 (stereo unspecified) | 6% | 5.56 | 0.25 | 4.49 | 53% |  |
| CN/C(=N\CCCC(c1ccc(Cl)c(Cl)c1)c1ccccn1)NCCCc1c[nH]cn1 (stereo unspecified) |  | 6.16 | 1 | 5.58 | 41% |  |
| Clc1ccc(C(CCC/N=C(/NCCCc2c[nH]cn2)NC2CCCCC2)c2ccccn2)cc1Cl (stereo unspecified) |  | 5.76 | 1 | 4.65 | 87% | inhibition [8]: 30% |
| O=C(CCC(c1ccc(F)cc1)c1ccccn1)NCCCc1c[nH]cn1 (stereo unspecified) |  | 3.97 |  | < 3 |  | Intrinsic activity [6]: 1; inhibition [13]: inactive |
| NC(=O)N/C(=N\CCC(c1ccc(F)cc1)c1ccccn1)NCCCc1c[nH]cn1 (stereo unspecified) | 2% |  |  |  | 62% |  |
| N=C(NCCCc1c[nH]cn1)NCCC(c1cc(F)cc(F)c1)c1ccccn1 (stereo unspecified) |  | 6.56 | 1 | 8.05 | 62% | Kb [14]: 37.2 µM |
| N=C(CCC(c1ccccc1)c1ccccn1)NCCCc1c[nH]cn1 (stereo unspecified) |  | 6.45 | 1 | 6.5 | 45% |  |
| CN(CCC(c1ccc(F)cc1)c1ccccn1)C(=N)NCCCc1c[nH]cn1 (stereo unspecified) |  | 5.96 | 0.8 | 5.4 | 42% |  |
| N=C(NCCCc1c[nH]cn1)NCCCC(c1ccc(Cl)c(Cl)c1)c1ccccn1 (stereo unspecified) | 31% | 7.46 | 1 | 6.67 | 78% |  |
| Cc1ccc(CC(CC/N=C(\N)NCCCc2c[nH]cn2)c2ccccn2)cc1 (stereo unspecified) | 23% | 6.4 | 1 | 5.81 |  |  |
| CCOC(=O)N/C(=N\CCC(c1ccc(F)cc1)c1ccccn1)NCCCc1c[nH]cn1 (stereo unspecified) | 2% | 5.3 |  |  | 4% | pD2 [11]: inactive |
| N=C(N)NCCC(c1ccc(F)cc1)c1ccccn1 (stereo unspecified) |  | 6.44 |  |  |  | inhibition [15]: inactive; pD2 [11]: inactive |
| N=C(NCCCc1c[nH]cn1)NCCCC(c1ccccc1)c1ccccn1 (stereo unspecified) | 8% | 6.06 | 1 | 6.61 | 84% |  |
| Cc1ccc(CC(CC/N=C(/NCCCc2c[nH]cn2)NC2CCCCC2)c2ccccn2)cc1 (stereo unspecified) | 24% | 5.4 | 1 |  | 75% | pKB [7]: 5.93 |
